According to PubChem BioAssay (NCI):
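Exposure lasted 48 hours, with cells grown in 96-well plates and compounds tested at five concentrations. Abbreviation: GI50, concentration required for 50% inhibition of growth. TGI marks complete inhibition of growth.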

Columns and labels:
Experiment in all cases: NCI tumour cell line growth inhibition, 48 h
[1] = test system: UO-31 renal
[2] = test system: UACC-257 melanoma
[3] = test system: EKVX NSCLC
[4] = test system: PC-3 prostate
[5] = test system: OVCAR-8 ovarian
[6] = test system: SF-539 CNS
[7] = test system: HL-60(TB) leukemia
[8] = test system: A498 renal
[9] = test system: DU-145 prostate
[10] = test system: U251 CNS
[11] = test system: SF-295 CNS
[12] = test system: CAKI-1 renal
[13] = test system: HT29 colon
[14] = test system: ACHN renal
[15] = test system: SK-OV-3 ovarian
[16] = test system: HS 578T breast
[17] = test system: SNB-19 CNS
[18] = test system: COLO 205 colon
[19] = test system: HCT-116 colon
[20] = test system: SR leukemia
[21] = test system: RXF 393 renal
[22] = test system: MDA-MB-231 breast
[23] = test system: NCI-H226 lung
[24] = test system: NCI-H522 lung
[25] = test system: K-562 leukemia
[26] = test system: NCI-H460 lung
[27] = test system: HOP-92 NSCLC
[28] = test system: MOLT-4 leukemia
[29] = test system: NCI/ADR-RES ovarian
[30] = test system: MCF7 breast
[31] = test system: CCRF-CEM leukemia
[32] = test system: SK-MEL-2 melanoma
[33] = test system: 786-0 renal
[34] = test system: SF-268 CNS
[35] = test system: SK-MEL-28 melanoma
[36] = test system: TK-10 renal
[37] = test system: RPMI-8226 leukemia
[38] = test system: HCT-15 colon
[39] = test system: UACC-62 melanoma
[40] = test system: OVCAR-5 ovarian
[41] = test system: HOP-62 NSCLC
[42] = test system: SNB-75 CNS
[43] = test system: A549 NSCLC
[44] = test system: NCI-H23 lung
[45] = test system: BT-549 breast
[46] = test system: MDA-MB-435
[47] = test system: SK-MEL-5 melanoma
[48] = test system: T-47D breast
[49] = test system: SW-620 colon
[50] = test system: SN12C renal
[51] = test system: LOX IMVI melanoma
[52] = test system: IGROV1 ovarian
[53] = test system: M14 melanoma
[54] = test system: HCC-2998 colon
[55] = test system: OVCAR-3 ovarian
[56] = test system: KM12 colon

CC(=O)OC1Oc2ccc(C)cc2-c2oc(=O)c(-c3cc4ccccc4oc3=O)cc21 (configuration not stated)
GI50 [1]: 7.9 µM | TGI [1]: 29.8 µM | GI50 [2]: 8.52 µM | TGI [2]: 27.4 µM | GI50 [3]: 6.02 µM | TGI [3]: 23.8 µM | GI50 [4]: 2.13 µM | TGI [4]: 8.54 µM | GI50 [5]: 3.8 µM | TGI [5]: 8.16 µM | GI50 [6]: 2.07 µM | TGI [6]: 6.21 µM | GI50 [7]: 0.822 µM | TGI [7]: 3.08 µM | GI50 [8]: 0.612 µM | TGI [8]: 4.07 µM | GI50 [9]: 1.92 µM | TGI [9]: 8.1 µM | GI50 [10]: 2.67 µM | TGI [10]: 26.8 µM | GI50 [11]: 2.13 µM | TGI [11]: 13 µM | GI50 [12]: 2.56 µM | TGI [12]: 7.69 µM | GI50 [13]: 2.08 µM | TGI [13]: 34 µM | GI50 [14]: 3.06 µM | TGI [14]: 11.4 µM | GI50 [15]: 1.8 µM | TGI [15]: 8.57 µM | GI50 [16]: 0.142 µM | TGI [16]: 8.09 µM | GI50 [17]: 3.82 µM | TGI [17]: 25.5 µM | GI50 [18]: 2.77 µM | TGI [18]: 15.7 µM | GI50 [19]: 2.08 µM | TGI [19]: 8.62 µM | GI50 [20]: 0.571 µM | TGI [20]: 2.04 µM | GI50 [21]: 3.01 µM | TGI [21]: 14.3 µM | GI50 [22]: 1.83 µM | TGI [22]: 5.67 µM | GI50 [23]: 4.61 µM | TGI [23]: 16.5 µM | GI50 [24]: 8.96 µM | TGI [24]: 34.6 µM | GI50 [25]: 2.1 µM | TGI [25]: 14.1 µM | GI50 [26]: 2.64 µM | TGI [26]: 17.8 µM | GI50 [27]: 1.12 µM | TGI [27]: 3.61 µM | GI50 [28]: 1.8 µM | TGI [28]: 3.99 µM | GI50 [29]: 2.54 µM | TGI [29]: 18.1 µM | GI50 [30]: 1.98 µM | TGI [30]: 7.01 µM | GI50 [31]: 1.38 µM | TGI [31]: 5.42 µM | GI50 [32]: 8.14 µM | TGI [32]: 40.7 µM | GI50 [33]: 1.92 µM | TGI [33]: 7.74 µM | GI50 [34]: 3.27 µM | TGI [34]: 12.2 µM | GI50 [35]: 5.84 µM | TGI [35]: 27.1 µM | GI50 [36]: 1.47 µM | TGI [36]: 7.93 µM | GI50 [37]: 0.943 µM | TGI [37]: 2.41 µM | GI50 [38]: 1.87 µM | TGI [38]: 11.6 µM | GI50 [39]: 2.57 µM | TGI [39]: 9.19 µM | GI50 [40]: 3.38 µM | TGI [40]: 21 µM | GI50 [41]: 3.77 µM | TGI [41]: 12.8 µM | GI50 [42]: 2.88 µM | TGI [42]: 14.4 µM | GI50 [43]: 4.55 µM | TGI [43]: 20.8 µM | GI50 [44]: 2.82 µM | TGI [44]: 12 µM | GI50 [45]: 3.03 µM | TGI [45]: 8.86 µM | GI50 [46]: 0.985 µM | TGI [46]: 2.7 µM | GI50 [47]: 2.67 µM | TGI [47]: 11.6 µM | GI50 [48]: 1.5 µM | TGI [48]: 6.08 µM | GI50 [49]: 6.05 µM | TGI [49]: 29.9 µM | GI50 [50]: 2.77 µM | TGI [50]: 9.89 µM | GI50 [51]: 1.2 µM | TGI [51]: 3.71 µM | GI50 [52]: 4 µM | TGI [52]: 37.7 µM | GI50 [53]: 1.2 µM | TGI [53]: 2.78 µM | GI50 [54]: 2.43 µM | TGI [54]: 9.33 µM | GI50 [55]: 1.19 µM | TGI [55]: 8.15 µM | GI50 [56]: 1.43 µM | TGI [56]: 5.94 µM
